Experimental data: publication PMC6332026, “Synthesis and Pharmacochemistry of New Pleiotropic Pyrrolyl Derivatives” (Molecules, 2015)

Test: Interaction with the stable free radical DPPH (reducing activity)
Conditions: 1000 μM compound, DPPH 50 μM
Protocol: 2,2-Diphenyl-1-picrylhydrazyl (DPPH) is a lipophilic, free, stable radical, which absorbs at 517 nm (violet color). Upon reduction, decolorization is observed that is stoichiometric to the number of received electrons and is representative of the antioxidant ability of compounds. […] This interaction, which indicates their radical scavenging ability in an iron-free system, was measured at 100 and 1000 μM after 20 and 60 min, whereas the final concentration of DPPH was stable at 50 μΜ.
[…] The absorbance was measured at 517 nm after 20 and 60 min at room temperature.

| SMILES | RA % (interaction with DPPH) (20 min) | RA % (interaction with DPPH) (60 min) |
| --- | --- | --- |
| O=C(c1cccs1)c1c[nH]cc1-c1ccc(OCc2ccc(Br)cc2)cc1 [Compound 2iii, (4-{4-[(4-Bromobenzyl)oxy]phenyl}-1H-pyrrol-3-yl)(thien-2-yl)methanone] | 4% | 5% |
| O=C(c1ccccc1)c1c[nH]cc1-c1cccc2ccccc12 [Compound 2iv, [4-(Naphth-1-yl)-1H-pyrrol-3-yl](phenyl)methanone] | 8% | 10% |
